Experimental data reported in patent publication US8518965B2, “Compositions and methods for treating cancer” (Trustees of Dartmouth College, priority 2009, dated 2013).
Read-outs that look alike come from different tables or passages of the source. Marks after values point to notes of the source that are not given here. Each block holds one compound with its values, some of them ahead of it.

Tests used:
[1] = Solubility in solvents and buffers; format: physicochemical
Protocol: Characterization of D11B. The solubility of D11B in different solvents was analyzed (Table 1).
(§1) The solubility of D11B in various combinations of solvents was also analyzed. […] For the analysis of co-solvents, stock solutions were prepared by dissolving D11B in a corresponding solvent. Stock solutions of D11B in dimethylsulfoxide (DMSO) were prepared at 25° C., and stock solutions of D11B in PEG-400, CREMOPHOR® EL and Polysorbate 80 were prepared at 100° C. Injection solutions, in water (0.3 mg/ml), were prepared by dropwise addition of the stock solution to a required volume of vigorously stirred hot water (80° C.).
The solubility of D11B×2AH in DMSO, PEG-400, EtOH, and buffer was determined (Table 7).

[2] = State of stock and injection solutions in water + co-solvents; format: physicochemical
Protocol: as §1
Additional solubility determinations were carried out with D11B×2AH in water+co-solvents. For this analysis, stock solutions were prepared by dissolving D11B×2AH in a corresponding solvent. Stock solutions of D11B×2AH in DMSO were prepared at 25° C. and stock solutions of D11B×2AH in PEG-400 were prepared at 100° C.
Injection solutions in water (0.3 mg/ml) were prepared by dropwise addition of each stock solution to a required volume of vigorously stirred water.

[3] = test system: SF 295 human glioblastoma cells; assay: Colony formation assay, SF 295 cells; format: cell-based; conditions: for IC50: Homo sapiens, SF 295 cells, 72 hours with compound, colonies counted after 10 days (Example 10), read-out: IC50; for Killing / inhibition of the growth of SF 295 human glioblastoma cells (in words): Example 10
Protocol: (§2) NCI/ADR-RES human breast cancer cells (500 cells), HCT116 human colon cancer cells (400 cells) or SF 295 human glioblastoma cells (1000 cells) were plated in 60 mm Petri dishes containing 2.7 ml of medium (modified McCoy's 5a medium containing 10% fetal bovine serum and 100 units/ml penicillin and 100 μg/ml streptomycin). The cells were incubated in a CO2 incubator at 37° C. for 5 hours for attachment to the bottom of Petri dishes. Compounds were prepared fresh in medium at ten times the final concentration, and then 0.3 ml of this stock solution was added to the 2.7 ml of medium in the dish. The cells were then incubated with compounds for 72 hours at 37° C. At the end of incubation, the compound-containing media were decanted, the dishes were rinsed with 4 ml of Hank's Balance Salt Solution (HBSS), 5 ml of fresh medium was added, and the dishes were returned to the incubator for colony formation. The cell colonies were counted using a colony counter after incubation for 14 days for NCI/ADR-RES cells and 10 days for HCT116 cells and SF 295 cells. Cell survival was calculated and the IC50 values (the drug concentration producing 50% inhibition of colony formation) were determined for each tested compound.
One thousand SF 295 cells were plated in 60 mm Petri dishes containing 2.7 ml of medium (modified McCoy's 5a medium containing 10% fetal bovine serum and 100 units/ml penicillin and 100 μg/ml streptomycin). The cells were incubated in a CO2 incubator at 37° C. for 5 hours for attachment to the bottom of Petri dishes. Compounds were prepared fresh in medium at ten times the final concentration, and then 0.3 ml of this stock solution was added to the 2.7 ml of medium in the dish. The cells were then incubated with the compounds for 72 hours at 37° C. At the end of incubation, the compound-containing media were decanted, the dishes were rinsed with 4 ml of Hank's Balance Salt Solution (HBSS), 5 ml of fresh medium was added, and the dishes were returned to the incubator for colony formation. After incubation for 10 days, the cell colonies were counted using a colony counter. Cell survival was calculated and the values of IC50 were determined for each compound tested.

[4] = test system: normal C3H/HeN mice; assay: Maximum tolerated dose (MTD40) in normal mice; conditions: suspension formulation, single intraperitoneal injection, 40 days
Protocol: The MTD40 (maximum tolerated dose at day 40) values were determined on normal C3H/HeN mice using standard procedures. […] The result of this exercise was two dosages, one apparently nonlethal and the other lethal, if severe and irreversible toxicity occurred and euthanasia was required. Six mice were dosed at each dosage. If no severe and irreversible toxicity occurred at the lower dosage and at least one with severe and irreversible toxicity at the higher dose, then the lower dose was considered to be the MTD.
Compounds were administered to C3H/HeN mice by intraperitoneal injection (5% alcohol, 5% CREMOPHOR® EL, and 90% saline, 0.5 ml/20 gram, single injection). Drug toxicity was evaluated on mice checked daily for 40 days. The toxicity parameters reported were the MTD40. […] At the end of experiment, all mice were euthanized.
The toxicity parameters reported were the MTD40. At the end of experiment, all mice will be euthanized.

[5] = test system: HCT116 human colon cancer cells; assay: Colony formation assay, HCT116 cells; format: cell-based; conditions: 72 hours with compound, colonies counted after 24 days (Example 9), read-out: IC50
Protocol: as §2
Four hundred HCT116 cells were plated in 60 mm Petri dishes containing 2.7 ml of medium (modified McCoy's 5a medium containing 10% fetal bovine serum and 100 units/ml penicillin and 100 μg/ml streptomycin). The cells were incubated in a CO2 incubator at 37° C. for 5 hours for attachment to the bottom of Petri dishes. Compounds were prepared fresh in medium at ten times the final concentration, and then 0.3 ml of this stock solution was added to the 2.7 ml of medium in the dish. The cells were then incubated with drugs for 72 hours at 37° C. At the end of incubation the compound-containing media were decanted, the dishes were rinsed with 4 ml of Hank's Balance Salt Solution (HBSS), 5 ml of fresh medium was added, and the dishes were returned to the incubator for colony formation. HCT116 cell colonies were counted using a colony counter after […] of incubation. Cell survival was calculated and IC50 values were determined for each compound tested.

[6] = Homo sapiens, HCT-116, HCT116 cells

Compound: c1ccc2c(Nc3ccc(Oc4ccc(Nc5c6ccccc6nc6ccccc56)cc4)cc3)c3ccccc3nc2c1 [D11Bx2AH 4, D11B dilactabionate]
Solubility (mg/ml), 25° C. ([1]; D11Bx2AH salts, DMSO, listed as 4): 40 mg/mL
Solubility (mg/ml), 25° C. ([1]; D11Bx2AH salts, PEG-400, samples were dissolved at 100° C., listed as 4): >10 mg/mL
Solubility (mg/ml) ([1]; PEG-400 (Table 16), heating to 100° C. was required, listed as dilactabionate (4)): >10^ mg/ml
State of the stock solution ([2]; dilactobionate (4) in DMSO, 20 mg/ml): clear
State of the stock solution ([2]; dilactobionate (4) in DMSO, 40 mg/ml): clear
State of the injection solution ([2]; dilactobionate (4) in H2O—DMSO 0.3 mg/ml, stock 20 mg/ml, DMSO 1.36 wt. %): clear
State of the injection solution ([2]; dilactobionate (4) in H2O—DMSO 0.3 mg/ml, stock 40 mg/ml, DMSO 0.68 wt. %): clear

Compound: c1ccc2c(Nc3ccc(Oc4ccc(Nc5ccnc6ccccc56)cc4)cc3)ccnc2c1 [Compound D245B]
Killing / inhibition of the growth of SF 295 human glioblastoma cells (in words) [3]: effective
IC50 [3]: 133 nM
Values of MTD40 [4]: 25 mg/kg
IC50 ([5]; HCT116 cells): 79 nM
IC50 [5, 6]: 122 nM

Compound: c1ccc2c(Nc3ccc(Oc4ccc(Nc5c6ccccc6nc6ccccc56)cc4)cc3)c3ccccc3nc2c1 [D11Bx2AH 1, D11B digluconate]
Solubility (mg/ml), 25° C. ([1]; D11Bx2AH salts, DMSO, listed as 1): 31 mg/mL
Solubility (mg/ml), 25° C. ([1]; D11Bx2AH salts, PEG-400, samples were dissolved at 100° C., listed as 1): >10 mg/mL
solubility ([1]; EtOH, 25 °C, organic solvent or mixture, D11Bx2AH salts, EtOH, read-out: Solubility (mg/ml), 25° C.): > 1 mg/mL
solubility ([1]; PEG-400, organic solvent or mixture, PEG-400 (Table 16), heating to 100° C. was required, read-out: Solubility): > 10 mg/mL
solubility ([1]; buffer, 25 °C, pH 4, aqueous buffer, D11Bx2AH salts, Buffer (pH = 4), even at 100° C., read-out: Solubility (mg/ml), 25° C.): > 0.5 mg/mL
solubility ([1]; buffer, 25 °C, pH 6, aqueous buffer, D11Bx2AH salts, Buffer (pH = 6), even at 100° C., read-out: Solubility (mg/ml), 25° C.): > 0.5 mg/mL
State of the stock solution ([2]; digluconate (1) in DMSO, 22 mg/ml): clear
State of the stock solution ([2]; digluconate (1) in DMSO, 31 mg/ml): clear
State of the injection solution ([2]; digluconate (1) in H2O—DMSO 0.3 mg/ml, stock 22 mg/ml, DMSO 1.50 wt. %): clear
State of the injection solution ([2]; digluconate (1) in H2O—DMSO 0.3 mg/ml, stock 31 mg/ml, DMSO 1.06 wt. %): clear

Compound: Cc1cc(Nc2ccc(Oc3ccc(Nc4cc(C)nc5ccccc45)cc3)cc2)c2ccccc2n1 [Compound D288]
Killing / inhibition of the growth of SF 295 human glioblastoma cells (in words) [3]: effective
IC50 [3]: 85 nM
Values of MTD40 [4]: 25 mg/kg

Compound: c1ccc2c(Nc3ccc(Oc4ccc(Nc5c6ccccc6nc6ccccc56)cc4)cc3)c3ccccc3nc2c1 [D11Bx2AH 7, D11B bis(3,4-dihydroxyphenylacetate)]
Solubility (mg/ml), 25° C. ([1]; D11Bx2AH salts, DMSO, listed as 7): 66 mg/mL
State of the stock solution ([2]; bis(3,4-dihydroxyphenylacetate) (7) in DMSO, 66 mg/ml): clear
State of the injection solution ([2]; bis(3,4-dihydroxyphenylacetate) (7) in H2O—DMSO 0.3 mg/ml, DMSO 0.5 wt. %): clear

Compound: c1ccc2c(Nc3ccc(Oc4ccc(Nc5c6ccccc6nc6ccccc56)cc4)cc3)c3ccccc3nc2c1 [D11Bx2AH 6, D11B digallate]
Solubility (mg/ml), 25° C. ([1]; D11Bx2AH salts, DMSO, listed as 6): 325 mg/mL
Solubility (mg/ml) ([1]; PEG-400 (Table 16), heating to 100° C. was required, listed as digallate (6)): 20^a mg/ml
solubility ([1]; PEG-400, 25 °C, organic solvent or mixture, D11Bx2AH salts, PEG-400, samples were dissolved at 100° C., read-out: Solubility (mg/ml), 25° C.): 20 mg/mL
State of the stock solution ([2]; digalate (6) in DMSO, 20 mg/ml): clear
State of the stock solution ([2]; digalate (6) in DMSO, 39.9 mg/ml): clear
State of the stock solution ([2]; digalate (6) in DMSO, 77 mg/ml): clear
State of the stock solution ([2]; digalate (6) in DMSO, 158 mg/ml): clear
State of the stock solution ([2]; digalate (6) in DMSO, 325 mg/ml): clear
State of the injection solution ([2]; digalate (6) in H2O—DMSO 0.3 mg/ml, stock 20 mg/ml, DMSO 1.65 wt. %): clear
State of the injection solution ([2]; digalate (6) in H2O—DMSO 0.3 mg/ml, stock 39.9 mg/ml, DMSO 0.83 wt. %): clear
State of the injection solution ([2]; digalate (6) in H2O—DMSO 0.3 mg/ml, stock 325 mg/ml, DMSO 0.1 wt. %): prec.

More lines, main results first:

IC50 [3]: > 5000 nM
melting point: 362 °C
Compound: c1ccc2c(Nc3ccc(Oc4ccc(Nc5cnnc6ccccc56)cc4)cc3)cnnc2c1 [Compound D284]

IC50 [3]: > 5000 nM
melting point: 372 °C
Compound: c1nc(Nc2ccc(Oc3ccc(Nc4ncnc5[nH]cnc45)cc3)cc2)c2nc[nH]c2n1 [Compound D276]

IC50 [3]: 1420 nM
melting point: 114 to 115 °C
Compound: c1ccc2c(c1)Cc1c-2nc2ccccc2c1Nc1ccc(Oc2ccc(Nc3c4c(nc5ccccc35)-c3ccccc3C4)cc2)cc1 [Compound D275]
Killing / inhibition of the growth of SF 295 human glioblastoma cells (in words) [3]: effective

IC50 [3]: > 5000 nM
melting point: 110 to 112 °C
Compound: c1ccc2c(Nc3ccc(Oc4ccc(Nc5nccc6ccccc56)cc4)cc3)nccc2c1 [Compound D278]

IC50 [3]: > 5000 nM
melting point: 124 to 125 °C
Compound: c1ccc2c(Nc3ccc(Oc4ccc(Nc5ncnc6ccccc56)cc4)cc3)ncnc2c1 [Compound D281]

IC50 [5, 6]: 4220 nM
Compound: c1cc(Nc2ccc(Oc3ccc(Nc4ccncc4)cc3)cc2)ccn1 [Compound D244]

melting point: 338 to 340 °C
IC50 ([5]; HCT116 cells): 722 nM
Compound: c1ccc2c(Nc3ccc(Oc4ccc(Nc5c6ccccc6nc6ncccc56)cc4)cc3)c3cccnc3nc2c1 [Compound 254B]

IC50 ([5]; HCT116 cells): 1460 nM
Compound: c1ccc2c(Nc3ccc(Oc4ccc(Nc5c6ccccc6nc6ncccc56)cc4)cc3)c3cccnc3nc2c1 [Compound D254]

melting point: 263 to 264 °C
IC50 ([5]; HCT116 cells): 3340 nM
Compound: c1cc(Nc2ccc(Oc3ccc(Nc4ccncc4)cc3)cc2)ccn1 [Compound 244B]
